Here are results for 3 substances from publication PMC11193748 (Communications Biology, 2024).

The target of one test is T1, LcsG (Purpureocillium lilacinum, UniProt A0A179H2P2).
T1 construct: pACYC-lcsG was generated by integrating the lcsG gene from the PLBJ-1 cDNA into the protein expression vector pACYCDuet-1; His6 (N); His6 (C); made in house; host or cells: E. coli ArcticExpress (DE3)
T1 sequence (A0A179H2P2 1-468): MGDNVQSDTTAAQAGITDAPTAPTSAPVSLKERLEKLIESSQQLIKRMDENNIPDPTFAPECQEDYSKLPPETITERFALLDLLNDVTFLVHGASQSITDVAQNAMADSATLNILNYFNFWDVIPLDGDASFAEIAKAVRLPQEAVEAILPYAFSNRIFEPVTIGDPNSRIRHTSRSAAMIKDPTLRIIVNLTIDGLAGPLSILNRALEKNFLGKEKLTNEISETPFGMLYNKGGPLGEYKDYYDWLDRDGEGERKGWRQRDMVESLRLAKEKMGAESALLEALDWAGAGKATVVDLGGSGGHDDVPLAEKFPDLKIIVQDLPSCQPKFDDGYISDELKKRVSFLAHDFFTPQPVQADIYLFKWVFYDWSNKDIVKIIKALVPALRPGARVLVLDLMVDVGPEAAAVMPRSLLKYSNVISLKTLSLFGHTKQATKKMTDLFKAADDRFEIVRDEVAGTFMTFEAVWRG
As to the kind of experiment: Michaelis-Menten enzyme kinetics of LcsG with leucinostatin substrates. The settings on record: for Kcat/Km: compound as substrate of LcsG, from the Michaelis-Menten fit; for Kcat / Km: compound as substrate, 1 μM LcsG, 34 °C, 30 min, product formation by LC-MS, nonlinear regression, n = 3. The format is biochemical, Purpureocillium lilacinum PLBJ-1. As to the method:
The compounds were quantified by an external standard method and calibration curves were constructed using LeuA0 and LeuK3. In this study, LeuA0 was diluted to concentrations of 25, 50, 100, 250, and 500 nM. LeuK3 was also diluted to concentrations of 50, 100, 250, 500, and 1000 nM. Dilutions were prepared in MeCN, and calibration curves were constructed using the software GraphPad Prism 9.
The kinetic constants of LcsG were determined by the following approach: 1 μM LcsG was assayed against different specific concentrations of the substrates LeuA (2, 4, 8, 10, 20, 40, 80, 100, 120, 150, and 200 μM) and LeuK0 (4, 8, 10, 20, 40, 80, 100, 120, 140, and 160 μM). The initial rate of the reaction was measured by monitoring the formation of products (LeuA0 or LeuK3) at 34 °C for 30 min. The rates were plotted against substrate concentration using the Michaelis‒Menten kinetics equation by nonlinear regression analysis with the software GraphPad Prism 9, and Km and Kcat constants were generated from the resulting Michaelis‒Menten plot.
LC‒MS analyses were performed on an Agilent 1290 Infinity II HPLC with an Agilent Infinity Lab single quadrupole mass selective detector by using an Agilent Zorbax Eclipse Plus C18 reversed-phase column (2.1 × 100 mm, 2.7 μm). Water (A) with 0.1% (v/v) formic acid and acetonitrile (B) were used as the solvents at a flow rate of 0.25 ml min^−1. The substances were eluted with 10% (v/v) B for 1 min, subjected to a linear gradient from 10 to 100% (v/v) B for 12 min, washed with 100% solvent B for 5 min, and equilibrated with 5% solvent B for 10 min at a flow rate of 0.25 ml/min. The mass spectrometer was set in electrospray positive ion mode for ionization.

Test [1] relates to P. infestans.
The test system of test [2] is P. infestans. The settings on record: cited from earlier work.
The next test relates to C. neoformans. The settings on record: cited from earlier work.

Like-named read-outs stand apart in the source and are kept apart here.

The Km is the concentration of substrate that gives half-maximal velocity. For the substance leucinostatin K0 [LeuK0], the “growth inhibition, agar diffusion assay” value in the test on C. neoformans H99 is on record as “inhibitory effects”. Further, at LcsG, the Kcat/Km is 32.94 M⁻¹ s⁻¹, the Kcat amounted to 0.00624 s⁻¹ and the Km was determined as 189 µM. Also, the “growth inhibition, agar diffusion assay” value in the test on P. infestans [1] is recorded as “inhibitory effects”.

As to leucinostatin B [LeuB], the “inhibitory effects on P. infestans” value with P. infestans [2] (previous studies) is “inhibitory effects”. Moreover, in the test with C. neoformans, the “inhibitory effects on C. neoformans” value is listed as “inhibitory effects”.

Regarding leucinostatin A [LeuA], at LcsG, the Kcat/Km was found to be 65.39 M⁻¹ s⁻¹, the Kcat is 0.00075 s⁻¹ and the Km was found to be 11.5 µM. In addition, in the test on P. infestans [2], the “inhibitory effects on P. infestans” value is recorded as “inhibitory effects”. The “inhibitory effects on C. neoformans” value in the test on C. neoformans is recorded as “inhibitory effects”.
